Results from US20220354852A1, “TARGETING WNT SIGNALING FOR IMPROVED GLIOMA IMMUNOTHERAPY” (CITY OF HOPE, priority 2021, published 2022).

How the values were obtained:
[1] = system: murine-derived glioma cell lines (K-luc, GL261-parental, and GL261.IL13Rα2 engineered); experiment: ICG-001 single agent on murine-derived glioma cell lines (growth kinetics); format: cell-based, mouse; settings: ICG-001 0-10 μM, 4 days
Procedure: (§1) FIG. 11. (A, B) Growth kinetics of human PBT glioma lines (PBT017, PBT030, PBT135, PBT144, and PBT147) treated with ICG-001 (0-10 μM) for 7 days and (C) mouse glioma cells (GL261, GL261-IL13, and K-luc) treated with ICG-001 (0-10 μM) for 4 days. Red boxes indicate PBT030 and PBT147 cell lines used for Nanostring and proteomics analysis. Scale bars represent S.D. of triplicate samples. (D-F) Growth kinetics of PBT017 (2,500 cells/well) treated with or without HER2-CAR T cells (500 cells/well) and with or without ICG-001 (0-5 μM). The red line is CAR T cell treatment only and the bottom three lines are with ICG-001. Experiment was done in quadruplicate and error bars indicate S.D.
(§2) ICG-001 activity in vitro in human and mouse glioma cell lines. Initially, the effects of the specific CBP/β-catenin antagonist ICG-001 was tested in vitro as a single agent on human and mouse glioma cell lines (5 PBT human and 3 mouse glioma lines).

[2] = system: subcutaneous murine K-luc GBM tumors; experiment: NanoString mouse immune panel of subcutaneous K-luc tumors; format: in vivo; settings: 50 mg/kg/day, compared with untreated controls on day 21
Text: FIG. 23. NanoString analysis of subcutaneous K-luc tumors using the mouse immune panel. 750 mRNA concentration measurements, measured in baseline cells first at day 0 and then in subcutaneously transplanted tumors in separate mice at day 7, 14, and 21 (n=2). Sample 507 is a tumor that was not treated with ICG-001, was harvested on day 21, and is a baseline for comparison for days 7, 14, and 21. The log10 fold-change in mRNA expression was considered between 507 and the other samples.
Animal studies. Syngeneic mice (C57BL/6) of 8-12 weeks of age were implanted with subcutaneous K-Luc tumors (n=8). 7 days after, when tumors became palpable and after confirmation of the tumor presence with BLU imaging, mice were implanted with Alzet minipumps with ICG001 (50 mg/kg/day). Pumps were continuously providing a daily dose of ICG-001. Tumor tissues were harvested on days 7, 14, 21 post pump implantation and tumors were prepared for IHC (paraffin sections) and Nanostring analysis.
NanoString analysis of subcutaneous murine K-luc GBM tumors The ICG-001 and saline control treated tumors were harvested on days 7, 14, and 21. Freshly frozen K-luc tumors were used for RNA isolation and NanoString analysis to determine endogenous immune response upon treatment with ICG-001. […]

[3] = system: Wnt target genes BIRC5/Survivin and EphB2; experiment: Quantitative RT-PCR of Wnt target genes in mouse glioma cell lines; format: cell-based
Procedure: FIG. 15. Expression of target genes post-ICG-001 treatment (0-10 μM) by RT-PCR using (A-C) mouse Survivin in GL261-IL13, GL261, and K-luc cells. (D) Survivin in PBT147 human glioma cells. (E, F) Luciferase reporter assay indicating downregulation of Survivin/BIRC5 in PBT017 and PBT030 cell lines.
FIG. 16 is a table showing the expression of the target genes survivin/BIRC5 post-ICG-001 treatment ([…]) as detected by RT-PCR and Luciferase Reporter Assay.
ICG-001 differentially affects the expression of the Wnt target genes BIRC5/Survivin and EphB2 in vitro. […] The effects of ICG-001 on Wnt/CBP/β-catenin signaling were further confirmed using a Survivin-luciferase reporter assay (FIG. 15). ICG-001's selective effects on the expression of Survivin and EphB2 may serve as indicators of ICG-001 on target tissue activity in vivo (FIG. 16) and a readout for pharmacokinetics/pharmacodynamics (PK/PD) as used previously in clinical trials with the second-generation CBP/β-catenin specific antagonist PRI-724 (Anthony et al. 2013).

[4] = system: human patient-derived glioma (PBT017, PBT030, PBT135, PBT144, and PBT147); experiment: ICG-001 single agent on human patient-derived glioma cell lines (growth kinetics, morphology); format: cell-based
Procedure: FIG. 2. Combinational strategy of CAR T cell-mediated tumor-antigen targeting with ICG-001 induced differentiation in glioma. […] (B) Cytotoxicity of HER2 CAR-T cells and tumor cells (1:5 ratio) was enhanced by ICG-001 at concentrations 1.25-5 μM. (C) Treatment of PBT138 patient glioma tumors with CAR T IL13Rα2+/−ICG-001.
as §1
PBT tumor cells lines are patient derived tumors dissociated and grown in DMEM/F12 medium, supplemented with heparin, hepes, glutamax and B27. EFG and FGF is added at the time of the culture as described previously (Brown et al. 2009). ICG-001 was kindly provided by another laboratory.
In vitro experiments. Co-culture assay of PBT cell lines grown as described above and seeded to 100,000 cells/2 ml in 6 well plates. ICG-001 is added to the cell culture in concentrations […] for 24-72 h, as described previously (Brown et al. 2013).
as §2

## O=C1[C@H](Cc2ccc(O)cc2)N2C(=O)CCN(C(=O)NCc3ccccc3)[C@H]2CN1Cc1cccc2ccccc12 [ICG-001]
[1]
  effect on cell growth (growth kinetics): concentration dependent cytostatic effect
[2]
  immune pathways (mRNA) in tumor versus untreated controls: concentration dependent increase in immune pathways
[3]
  expression of Wnt/p300/β-catenin target gene EphB2: upregulating
[3]; ICG-001 0-10 μM
  expression of Wnt/CBP/β-catenin target gene BIRC5/Survivin: selectively downregulated
[4]; ICG-001 0-10 μM, 7 days, PBT017, PBT030, PBT135, PBT144, PBT147
  effect on cell growth (growth kinetics): concentration dependent cytostatic effect
[4]; ICG-001 0.75-10 μM, PBT017
  differentiation and growth of PBT017 glioma cells: differentiation and cell growth arrest
[4]; all glioma lines, demonstrated with PBT017.RFP
  morphological phenotype: less proliferative and more differentiated phenotype
